Assay results from patent US10881679B2, “Application of a phillyrin/phillygeninin composition in preparing a medicine or health care product for alleviating or/and treating viral diseases, and medicine or health care product for treating viral diseases” (priority 2014, dated 2021).
Marks after values point to notes of the source that are not given here.

Assays:
influenza virus [1] = type: in vivo, Kunming mice; settings: 19.5 mg/kg/d i.g. 5 days
influenza virus [2] = type: in vivo, Kunming mice; settings: 19.5 mg/kg/d i.g. 5 days; remark: listed apart in the source
[3] = test system: Coxsackievirus A16 (CoxA16); test: Impact on virus-induced cytopathic effect in Vero cells (MTT): CoxA16; type: cell-based; settings: CoxA16 100TCID50, Vero, 72 h; drug g/L as Table 1-2
[4] = test system: Herpes zoster simplex viruses type I (HSV-I); test: Impact on virus-induced cytopathic effect in Vero cells (MTT): HSV-I; type: cell-based; settings: HSV-I 100TCID50, Vero, 72 h; drug g/L as Table 1-2
enterovirus EV71 = test: Impact on virus-induced cytopathic effect in Vero cells (MTT): EV71; type: cell-based; settings: EV71 100TCID50, Vero, 72 h; drug g/L as Table 1-2
parainfluenza virus [5] = test: Impact on virus-induced cytopathic effect in Vero cells (MTT): parainfluenza virus; type: cell-based; settings: parainfluenza virus 100TCID50, Vero, 72 h; drug g/L as Table 1-2
influenza virus [6] = test: Impact on virus-induced cytopathic effect in Vero cells (MTT): influenza virus; type: cell-based; settings: influenza virus 100TCID50, Vero, 72 h; drug g/L (Table 1-2): phillyrin 0.01, Phillygeninin 0.02, compositions A, B 0.01, Ribavirin 0.70, oseltamivir phosphate 0.30
[7] = test system: respiratory syncytial virus (RSV); test: Impact on virus-induced cytopathic effect in Vero cells (MTT): RSV; type: cell-based; settings: RSV 100TCID50, Vero, 72 h; drug g/L as Table 1-2
parainfluenza virus [8] = type: in vivo, Kunming mice; settings: 19.5 mg/kg/d i.g. 5 days
Vero cells = test: Cytotoxicity test (MTT) on Vero cells; type: cell-based, African green monkey; settings: 72 h
Experimental: Cytotoxicity test: the drugs were diluted according to the concentrations shown in table 1-1 for determination of cytotoxicity. […] In addition, 6 wells were set up as normal control group (without drugs) while another 6 pores as blank control group (medium only). Cells were grown in a 37° C. incubator under 5% CO2. […] After 72 h, 20 μL MTT solution (5 mg·mL^−1) was added into each well to continue incubation for 4 h. The culture medium in each well was sucked and discarded, 100 μL DMSO was added to each well. Then the culture was shaken for 5 min, measured OD value at 492 nm to calculate the cell survival ratio. The cell survival ratio was analyzed using a Probit regression model in SPSS 18.0 statistical software, and the maximal nontoxic concentration (TC0) and median toxic concentration (TC50) of drugs against Vero cells were calculated.

adenovirus (ADV) = test: Impact on virus-induced cytopathic effect in Vero cells (MTT): ADV; type: cell-based; settings: ADV 100TCID50, Vero, 72 h; drug g/L as Table 1-2
parainfluenza virus [9] = type: in vivo, Kunming mice; settings: 19.5 mg/kg/d i.g. 5 days; remark: listed apart in the source
[10] = test system: Coxsackie virus B3 (CVB3); test: Impact on virus-induced cytopathic effect in Vero cells (MTT): CVB3; type: cell-based; settings: CVB3 100TCID50, Vero, 72 h; drug g/L as Table 1-2

SMILES: CCOC(=O)C1=C[C@@H](OC(CC)CC)[C@H](NC(C)=O)[C@@H](N)C1 [oseltamivir phosphate]
- Lung index (influenza virus [1]): 1.178 ± 0.066
- Lung index inhibition rate (influenza virus [1]): 19.84
- Hemagglutination titer (InX) (influenza virus [2]): 20.50 ± 1.123
- Inhibition rate (%) of hemagglutination titer (influenza virus [2]): 36.73%
- antiviral effective rate (ER %) [3]: 2.95%
- antiviral effective rate (ER %) [4]: 66.56** %
- antiviral effective rate (ER %) (enterovirus EV71): 51.86%
- antiviral effective rate (ER %) (parainfluenza virus [5]): 94.52** %
- antiviral effective rate (ER %) (influenza virus [6]): 81.76** %
- antiviral effective rate (ER %) [7]: 37.60%
- Lung index (parainfluenza virus [8]): 1.243 ± 0.054
- Lung index inhibition rate (parainfluenza virus [8]): 21.85
- half toxic concentration (TC50) (Vero cells): 832 µg/mL
- maximal non-toxic concentration (TC0) (Vero cells): 0.28 g/L
- antiviral effective rate (ER %) (adenovirus (ADV)): 10.31%
- Hemagglutination titer (InX) (parainfluenza virus [9]): 22.05
- Inhibition rate (%) of hemagglutination titer (parainfluenza virus [9]): 33.40%
- antiviral effective rate (ER %) [10]: 1.64%
